Experimental data as given in publication PMC4059180 (Journal of medicinal chemistry, 2013).

Tests used:
cells = cells in vitro and in vivo; cited from earlier work
tumor growth = conditions: mice inoculated with those same cells; cited from earlier work
several tumor cell lines = conditions: cited from earlier work
FAP = target: T1, FAP (Homo sapiens, UniProt Q12884); assay: Enzyme kinetics; type: biochemical; conditions: highest concentrations tested
T1 sequence (Q12884 1-760): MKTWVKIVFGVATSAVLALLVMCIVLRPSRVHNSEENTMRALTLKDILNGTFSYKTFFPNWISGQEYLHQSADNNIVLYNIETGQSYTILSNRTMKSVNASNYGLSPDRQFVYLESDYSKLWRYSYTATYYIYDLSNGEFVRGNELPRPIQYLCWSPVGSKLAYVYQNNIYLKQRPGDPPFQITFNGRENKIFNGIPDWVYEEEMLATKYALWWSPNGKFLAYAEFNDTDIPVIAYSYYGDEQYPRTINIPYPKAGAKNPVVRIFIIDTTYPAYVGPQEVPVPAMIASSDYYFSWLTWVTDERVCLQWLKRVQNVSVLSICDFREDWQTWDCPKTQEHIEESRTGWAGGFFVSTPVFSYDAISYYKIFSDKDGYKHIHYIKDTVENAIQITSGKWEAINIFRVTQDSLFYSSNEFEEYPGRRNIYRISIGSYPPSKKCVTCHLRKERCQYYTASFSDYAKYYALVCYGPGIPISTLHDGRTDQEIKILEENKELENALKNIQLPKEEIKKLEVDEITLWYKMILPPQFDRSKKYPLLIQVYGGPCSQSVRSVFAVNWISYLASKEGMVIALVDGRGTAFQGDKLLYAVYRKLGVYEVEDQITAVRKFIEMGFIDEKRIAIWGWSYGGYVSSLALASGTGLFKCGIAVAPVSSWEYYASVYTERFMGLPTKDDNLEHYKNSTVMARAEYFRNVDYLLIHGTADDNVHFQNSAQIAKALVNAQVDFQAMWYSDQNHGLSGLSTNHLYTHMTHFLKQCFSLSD

[1] = system: mFAP transfected HEK293 cells; assay: CellTiter-Blue cell viability assay; type: cell-based; conditions: 48 h

Compound: CC(C)C[C@H](NC(=O)[C@H](Cc1ccccc1)NC(=O)c1cnccn1)B(O)O [bortezomib, Bortezomib]
- cytotoxicity (cells): cytotoxic

Compound: CC(C)[C@H](N)C(=O)N1CCC[C@H]1B(O)O [Compound 20, (S)-Valinyl-(R)-boroproline]
- tumor growth in vivo (tumor growth): attenuating tumor growth in vivo
- cytotoxicity (several tumor cell lines): lack cytotoxicity against several tumor cell lines

Compound: CC(C)[C@H](NC(=O)c1cccnc1)C(=O)N1CCC[C@H]1B(O)O [Compound 22, N-(Pyridine-3-carbonyl)-(R)-valinyl-(R)-boroproline]
- inhibition of FAP in kinetic analysis (FAP): does not inhibit FAP at the highest concentrations tested

Compound: C[C@@H](NC(=O)c1ccncc1)C(=O)N1CCC[C@H]1B(O)O [Compound 6, N-(Pyridine-4-carbonyl)-(R)-alaninyl-(R)-boroproline]
- cytotoxicity [1]: No cytotoxicity was observed
